Reference: BigSolDB 2.1

CC(C)(C)C(O)(CCc1ccc(Cl)cc1)Cn1cncn1 (stereo not given)
solubility (mole fraction) (in 2-butanone, 278.15 K): 0.0404 | solubility (mole fraction) (in 2-butanone, 280.65 K): 0.0439 | solubility (mole fraction) (in 2-butanone, 283.15 K): 0.0476 | solubility (mole fraction) (in 2-butanone, 285.65 K): 0.0524 | solubility (mole fraction) (in 2-butanone, 288.15 K): 0.0569 | solubility (mole fraction) (in 2-butanone, 290.65 K): 0.0612 | solubility (mole fraction) (in 2-butanone, 293.15 K): 0.0659 | solubility (mole fraction) (in 2-butanone, 295.65 K): 0.0709 | solubility (mole fraction) (in 2-butanone, 298.15 K): 0.076 | solubility (mole fraction) (in 2-butanone, 300.65 K): 0.0815 | solubility (mole fraction) (in 2-butanone, 303.15 K): 0.0869 | solubility (mole fraction) (in 2-butanone, 305.65 K): 0.0928 | solubility (mole fraction) (in 2-butanone, 308.15 K): 0.0987 | solubility (mole fraction) (in 2-butanone, 310.65 K): 0.106 | solubility (mole fraction) (in 2-butanone, 313.15 K): 0.113 | solubility (mole fraction) (in acetone, 278.15 K): 0.0304 | solubility (mole fraction) (in acetone, 280.65 K): 0.0336 | solubility (mole fraction) (in acetone, 283.15 K): 0.038 | solubility (mole fraction) (in acetone, 285.65 K): 0.0416 | solubility (mole fraction) (in acetone, 288.15 K): 0.0461 | solubility (mole fraction) (in acetone, 290.65 K): 0.0507 | solubility (mole fraction) (in acetone, 293.15 K): 0.0562 | solubility (mole fraction) (in acetone, 295.65 K): 0.0613 | solubility (mole fraction) (in acetone, 298.15 K): 0.0668 | solubility (mole fraction) (in acetone, 300.65 K): 0.0723 | solubility (mole fraction) (in acetone, 303.15 K): 0.0789 | solubility (mole fraction) (in acetone, 305.65 K): 0.0851 | solubility (mole fraction) (in acetone, 308.15 K): 0.0925 | solubility (mole fraction) (in acetone, 310.65 K): 0.101 | solubility (mole fraction) (in acetone, 313.15 K): 0.11 | solubility (mole fraction) (in acetonitrile, 278.15 K): 0.00516 | solubility (mole fraction) (in acetonitrile, 280.65 K): 0.00585 | solubility (mole fraction) (in acetonitrile, 283.15 K): 0.00662 | solubility (mole fraction) (in acetonitrile, 285.65 K): 0.00746 | solubility (mole fraction) (in acetonitrile, 288.15 K): 0.00838 | solubility (mole fraction) (in acetonitrile, 290.65 K): 0.00942 | solubility (mole fraction) (in acetonitrile, 293.15 K): 0.0107 | solubility (mole fraction) (in acetonitrile, 295.65 K): 0.012 | solubility (mole fraction) (in acetonitrile, 298.15 K): 0.0134 | solubility (mole fraction) (in acetonitrile, 300.65 K): 0.0149 | solubility (mole fraction) (in acetonitrile, 303.15 K): 0.0165 | solubility (mole fraction) (in acetonitrile, 305.65 K): 0.0186 | solubility (mole fraction) (in acetonitrile, 308.15 K): 0.0208 | solubility (mole fraction) (in acetonitrile, 310.65 K): 0.0233 | solubility (mole fraction) (in acetonitrile, 313.15 K): 0.0261 | solubility (mole fraction) (in ethanol, 278.15 K): 0.0103 | solubility (mole fraction) (in ethanol, 280.65 K): 0.0118 | solubility (mole fraction) (in ethanol, 283.15 K): 0.0136 | solubility (mole fraction) (in ethanol, 285.65 K): 0.0157 | solubility (mole fraction) (in ethanol, 288.15 K): 0.0179 | solubility (mole fraction) (in ethanol, 290.65 K): 0.0203 | solubility (mole fraction) (in ethanol, 293.15 K): 0.0234 | solubility (mole fraction) (in ethanol, 295.65 K): 0.0264 | solubility (mole fraction) (in ethanol, 298.15 K): 0.0299 | solubility (mole fraction) (in ethanol, 300.65 K): 0.0333 | solubility (mole fraction) (in ethanol, 303.15 K): 0.037 | solubility (mole fraction) (in ethanol, 305.65 K): 0.0411 | solubility (mole fraction) (in ethanol, 308.15 K): 0.0463 | solubility (mole fraction) (in ethanol, 310.65 K): 0.0515 | solubility (mole fraction) (in ethanol, 313.15 K): 0.0572 | solubility (mole fraction) (in ethyl acetate, 278.15 K): 0.0244 | solubility (mole fraction) (in ethyl acetate, 280.65 K): 0.027 | solubility (mole fraction) (in ethyl acetate, 283.15 K): 0.03 | solubility (mole fraction) (in ethyl acetate, 285.65 K): 0.0336 | solubility (mole fraction) (in ethyl acetate, 288.15 K): 0.0377 | solubility (mole fraction) (in ethyl acetate, 290.65 K): 0.0421 | solubility (mole fraction) (in ethyl acetate, 293.15 K): 0.0466 | solubility (mole fraction) (in ethyl acetate, 295.65 K): 0.0512 | solubility (mole fraction) (in ethyl acetate, 298.15 K): 0.0564 | solubility (mole fraction) (in ethyl acetate, 300.65 K): 0.0612 | solubility (mole fraction) (in ethyl acetate, 303.15 K): 0.0668 | solubility (mole fraction) (in ethyl acetate, 305.65 K): 0.0734 | solubility (mole fraction) (in ethyl acetate, 308.15 K): 0.0797 | solubility (mole fraction) (in ethyl acetate, 310.65 K): 0.0867 | solubility (mole fraction) (in ethyl acetate, 313.15 K): 0.0945 | solubility (mole fraction) (in isopropanol, 278.15 K): 0.00877 | solubility (mole fraction) (in isopropanol, 280.65 K): 0.0103 | solubility (mole fraction) (in isopropanol, 283.15 K): 0.012 | solubility (mole fraction) (in isopropanol, 285.65 K): 0.0138 | solubility (mole fraction) (in isopropanol, 288.15 K): 0.0159 | solubility (mole fraction) (in isopropanol, 290.65 K): 0.018 | solubility (mole fraction) (in isopropanol, 293.15 K): 0.0204 | solubility (mole fraction) (in isopropanol, 295.65 K): 0.023 | solubility (mole fraction) (in isopropanol, 298.15 K): 0.026 | solubility (mole fraction) (in isopropanol, 300.65 K): 0.0293 | solubility (mole fraction) (in isopropanol, 303.15 K): 0.0328 | solubility (mole fraction) (in isopropanol, 305.65 K): 0.0367 | solubility (mole fraction) (in isopropanol, 308.15 K): 0.0416 | solubility (mole fraction) (in isopropanol, 310.65 K): 0.0462 | solubility (mole fraction) (in isopropanol, 313.15 K): 0.0519 | solubility (mole fraction) (in methanol, 278.15 K): 0.0154 | solubility (mole fraction) (in methanol, 280.65 K): 0.0174 | solubility (mole fraction) (in methanol, 283.15 K): 0.0196 | solubility (mole fraction) (in methanol, 285.65 K): 0.0225 | solubility (mole fraction) (in methanol, 288.15 K): 0.0253 | solubility (mole fraction) (in methanol, 290.65 K): 0.0284 | solubility (mole fraction) (in methanol, 293.15 K): 0.032 | solubility (mole fraction) (in methanol, 295.65 K): 0.0359 | solubility (mole fraction) (in methanol, 298.15 K): 0.04 | solubility (mole fraction) (in methanol, 300.65 K): 0.0444 | solubility (mole fraction) (in methanol, 303.15 K): 0.0497 | solubility (mole fraction) (in methanol, 305.65 K): 0.0551 | solubility (mole fraction) (in methanol, 308.15 K): 0.06 | solubility (mole fraction) (in methanol, 310.65 K): 0.0659 | solubility (mole fraction) (in methanol, 313.15 K): 0.0724 | solubility (mole fraction) (in n-propanol, 278.15 K): 0.00704 | solubility (mole fraction) (in n-propanol, 280.65 K): 0.00825 | solubility (mole fraction) (in n-propanol, 283.15 K): 0.00953 | solubility (mole fraction) (in n-propanol, 285.65 K): 0.0112 | solubility (mole fraction) (in n-propanol, 288.15 K): 0.0133 | solubility (mole fraction) (in n-propanol, 290.65 K): 0.0153 | solubility (mole fraction) (in n-propanol, 293.15 K): 0.0175 | solubility (mole fraction) (in n-propanol, 295.65 K): 0.0201 | solubility (mole fraction) (in n-propanol, 298.15 K): 0.0227 | solubility (mole fraction) (in n-propanol, 300.65 K): 0.0258 | solubility (mole fraction) (in n-propanol, 303.15 K): 0.0296 | solubility (mole fraction) (in n-propanol, 305.65 K): 0.0338 | solubility (mole fraction) (in n-propanol, 308.15 K): 0.0388 | solubility (mole fraction) (in n-propanol, 310.65 K): 0.0444 | solubility (mole fraction) (in n-propanol, 313.15 K): 0.0498 | solubility (mole fraction) (in toluene, 278.15 K): 0.0217 | solubility (mole fraction) (in toluene, 280.65 K): 0.0244 | solubility (mole fraction) (in toluene, 283.15 K): 0.0276 | solubility (mole fraction) (in toluene, 285.65 K): 0.0311 | solubility (mole fraction) (in toluene, 288.15 K): 0.0354 | solubility (mole fraction) (in toluene, 290.65 K): 0.0404 | solubility (mole fraction) (in toluene, 293.15 K): 0.0453 | solubility (mole fraction) (in toluene, 295.65 K): 0.0512 | solubility (mole fraction) (in toluene, 298.15 K): 0.0578 | solubility (mole fraction) (in toluene, 300.65 K): 0.0644 | solubility (mole fraction) (in toluene, 303.15 K): 0.0712 | solubility (mole fraction) (in toluene, 305.65 K): 0.079 | solubility (mole fraction) (in toluene, 308.15 K): 0.0873 | solubility (mole fraction) (in toluene, 310.65 K): 0.0964 | solubility (mole fraction) (in toluene, 313.15 K): 0.105
